Results taken from ChEMBL document CHEMBL1201862, “PubChem BioAssay data set” (2004).
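Following 48 hours of exposure in 96-well plates, responses at five concentrations were used to interpolate endpoints linearly. The concentration for 50% growth inhibition is given as GI50.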 Active and inactive are the calls of the source. Cut-off read from the data, not from the text of the source: active = GI50 up to about 1.1 µM and inactive = higher.

What was measured:
Assay in all cases: growth of human tumour cells (NCI), 48 h
[1] = system: OVCAR-8
[2] = system: Hs-578T
[3] = system: K562
[4] = system: UACC-257
[5] = system: SR
[6] = system: SF-295
[7] = system: EKVX
[8] = system: IGROV-1
[9] = system: MDA-MB-435
[10] = system: NCI-H522
[11] = system: SN12C
[12] = system: HOP-62
[13] = system: SW-620
[14] = system: NCI/ADR-RES
[15] = system: HCT-15
[16] = system: KM12
[17] = system: A549
[18] = system: SF-268
[19] = system: COLO 205
[20] = system: OVCAR-4

| SMILES | GI50 [1] | GI50 [2] | GI50 [3] | GI50 [4] | GI50 [5] | GI50 [6] | GI50 [7] | GI50 [8] | GI50 [9] | GI50 [10] | GI50 [11] | GI50 [12] | GI50 [13] | GI50 [14] | GI50 [15] [µM] | GI50 [16] | GI50 [17] | GI50 [18] | GI50 [19] | GI50 [20] |
| --- | --- | --- | --- | --- | --- | --- | --- | --- | --- | --- | --- | --- | --- | --- | --- | --- | --- | --- | --- | --- |
| COC1C(N)C(OC2C(Oc3cccc4c(O)c5c(=O)oc6ccc(C)c7c(=O)oc(c34)c5c67)OC(C)C(O)C2(C)O)OC(C)C1O (stereo not given) | 0.0154 µM (active) | < 0.01 µM (active) | < 0.0154 µM (active) | 0.0658 µM (active) | < 0.215 µM (active) | 0.0312 µM (active) | 0.156 µM (active) | < 0.0197 µM (active) | 0.0313 µM (active) | < 0.01 µM (active) | 0.0178 µM (active) | 0.0428 µM (active) | 0.0102 µM (active) | 0.427 µM (active) | 0.0925 | 0.0313 µM (active) | 0.0634 µM (active) | < 0.0119 µM (active) | 0.0456 µM (active) | 0.405 µM (active) |
| COc1cc(C(=O)OC2CC(C)=CC[C@@]3(C)CC[C@](O)(C(C)C)C23)ccc1O (stereo not given in full) | 18.2 µM (inactive) | 17.3 µM (inactive) | 17.4 µM (inactive) | 15.5 µM (inactive) | 25.5 µM (inactive) | 21.7 µM (inactive) | 18.9 µM (inactive) | 19 µM (inactive) | 40.5 µM (inactive) | 14.3 µM (inactive) | 18.4 µM (inactive) | 17.2 µM (inactive) | 28.5 µM (inactive) | 15.4 µM (inactive) | 18.6 | 15.9 µM (inactive) | 12.9 µM (inactive) | 19.5 µM (inactive) | 20 µM (inactive) | 15.9 µM (inactive) |
| O=C1/C(=C/C=C/c2ccccc2)CCC1CNc1ccc(Br)cc1 (stereo not given) | > 100 µM (inactive) | > 100 µM (inactive) | 27.1 µM (inactive) | > 100 µM (inactive) | 23.3 µM (inactive) | > 100 µM (inactive) | > 100 µM (inactive) | 46.8 µM (inactive) | 44.5 µM (inactive) | 21.3 µM (inactive) | 4.51 µM (inactive) | > 100 µM (inactive) | 88.7 µM (inactive) | > 10 µM (inactive) | 4.86 | 15.2 µM (inactive) | 53 µM (inactive) | > 100 µM (inactive) | 20.8 µM (inactive) | 57.7 µM (inactive) |
